According to patent US20240343761A1, “APELINERGIC MACROCYCLES AND USES THEREOF” (priority 2021, published 2024):
Bridge positions count the residues as written; N and C are the ends. Square brackets hold non-standard residues; d marks the D form. Peptide text beside a SMILES is read from it. dAllylGly = C=CC[C@@H](N)C(=O)O; AllylGly = C=CC[C@H](N)C(=O)O; pGlu = O=C1CC[C@@H](C(=O)O)N1; Nle = CCCC[C@H](N)C(=O)O; Ava = NCCCCC(=O)O

Biological target: T1, hAPJ receptor (Homo sapiens, UniProt P35414)
T1 construct: expressed in transfected cells; host or cells: HEK293, transient transfection with PEI
T1 sequence (P35414 1-380): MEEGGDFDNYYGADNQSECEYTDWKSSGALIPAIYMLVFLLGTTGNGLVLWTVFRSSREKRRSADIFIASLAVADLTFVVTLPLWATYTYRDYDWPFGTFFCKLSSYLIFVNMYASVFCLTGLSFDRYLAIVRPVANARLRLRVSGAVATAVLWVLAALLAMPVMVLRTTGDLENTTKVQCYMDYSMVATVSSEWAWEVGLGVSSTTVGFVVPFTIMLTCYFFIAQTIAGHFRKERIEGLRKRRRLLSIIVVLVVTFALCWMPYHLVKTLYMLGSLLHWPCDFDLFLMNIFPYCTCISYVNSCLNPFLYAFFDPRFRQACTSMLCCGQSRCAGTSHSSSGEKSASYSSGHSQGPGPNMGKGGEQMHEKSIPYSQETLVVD
Experiment: BRET-based β-arrestin2 recruitment assay in HEK293 cells
Format: cell-based
Conditions: HEK293; Table V; read-out: ß-arr2 Emax
Method: (§1) HEK293 cells were cultivated in high glucose DMEM medium having 10% FBS, 100 U/mL penicillin/streptomycin, 2 mM glutamine, and 20 mM HEPES at 37° C. in T175 flasks under humidified chamber at 5% CO2. […] Cells were then washed with phosphate-buffered saline (PBS) and 90 μL Hanks' balanced salt solution was added in each well. Then, cells were stimulated with analogs at concentrations ranging from 10^−5 M to 10^−11 M for 5 min at 37° C. (Gαi1) or for 30 min at room temperature (β-arrestin2). After stimulation, 5 μM of coelanterazine 400A was added to each well and the plate was read using the BRET^2 filter set of a GeniosPro plate reader (Tecan, Austria). The BRET ratio was determined as GFP10em/RlucIIem. Data were plotted and EC50 values were determined using GraphPad Prism 8. Each data point represents the mean±SEM of at least three different experiments each done in triplicate.

Row | Structure (SMILES) | Emax [%]
1 | CC(C)C[C@@H]1NC(=O)[C@H](CCCNC(=N)N)NC(=O)[C@@H](N)CC=CC[C@@H](C(=O)N[C@@H](CCCCN)C(=O)NCC(=O)N2CCC[C@H]2C(=O)N[C@H](Cc2ccc(OCc3ccccc3)cc2)C(=O)O)NC(=O)[C@H](CO)NC1=O [Compound 44, NH2-c[X-R-L-S-X]c-K-G-P-(D-TyrOBn)] | 78
2 | CCCC[C@H](NC(=O)[C@@H]1CCCN1C(=O)CNC(=O)[C@H](CCCCN)NC(=O)[C@@H]1CCN(C)CC=CC[C@H](NC(=O)[C@H](CCCNC(=N)N)NC(=O)[C@@H]2CCC(=O)N2)C(=O)N[C@@H](CCCNC(=N)N)C(=O)N[C@@H](CC(C)C)C(=O)N[C@@H](CO)C(=O)N1)C(=O)N1CCC[C@H]1C(=O)N[C@@H](Cc1ccccc1)C(=O)O [Compound 19, Pyr-R-c[X-R-L-S-Almb]c-K-G-P-Nle-P-F] | 90

Biological target: T1, hAPJ receptor
Experiment: BRET-based Gαi1 activation assay in HEK293 cells
Format: cell-based
Conditions: HEK293; Table V; read-out: Gαi1 Emax
Method: as §1

Row | Structure (SMILES) | Emax [%]
3 | CC(C)C[C@@H]1NC(=O)[C@H](CCCNC(=N)N)NC(=O)[C@@H](N)CC=CC[C@@H](C(=O)N[C@@H](CCCCN)C(=O)NCC(=O)N2CCC[C@H]2C(=O)N[C@H](Cc2ccc(OCc3ccccc3)cc2)C(=O)O)NC(=O)[C@H](CO)NC1=O [Compound 44, NH2-c[X-R-L-S-X]c-K-G-P-(D-TyrOBn)] | 104
4 | CCCC[C@H](NC(=O)[C@@H]1CCCN1C(=O)CNC(=O)[C@H](CCCCN)NC(=O)[C@@H]1CCN(C)CC=CC[C@H](NC(=O)[C@H](CCCNC(=N)N)NC(=O)[C@@H]2CCC(=O)N2)C(=O)N[C@@H](CCCNC(=N)N)C(=O)N[C@@H](CC(C)C)C(=O)N[C@@H](CO)C(=O)N1)C(=O)N1CCC[C@H]1C(=O)N[C@@H](Cc1ccccc1)C(=O)O [Compound 19, Pyr-R-c[X-R-L-S-Almb]c-K-G-P-Nle-P-F] | 102

Biological target: T2, human APJ (hAPJ) (Homo sapiens, UniProt P35414)
T2 construct: expressed in transfected cells; cell membranes
T2 sequence (P35414 1-380): T1 sequence (P35414 1-380)
Experiment: Competitive radioligand binding ([125I][Nle75,Tyr77][Pyr1]-Ape13) on membranes of HEK293 cells stably expressing human APJ
Conditions: not given
Method: HEK293 cells stably expressing YFP-tagged human APJ were cultured in DMEM medium supplemented with 10% FBS, at 37° C. under a humid atmosphere maintaining 5% CO2. Antibiotic G418 (400 μg/mL) was added to maintain a selection pressure for APJ-expressing cells while penicillin/streptomycin (0.1%) were used to prevent bacterial contamination.
Binding experiments were performed on cell membranes of HEK293 stably expressing the YFP-tagged human APJ receptor. Cells were frozen at −80° C. for storage and quickly thawed right before the experiments (1 min at 37° C.). […] The precipitate (cell membranes) was suspended in binding buffer (50 mM Tris-HCl, 0.2% BSA, pH 7.4). Binding assays were run in 96-well plates. […] (820 Ci/mmol)^3 and test ligand with a range of concentrations from 10^−1 to 10^−11 M in a total volume of 200 μL for 1 h at room temperature.
The incubation mixtures were filtered through a glass fiber filter (Millipore, pre-absorbed of PEI 0.5% for 2 h at 4° C.) to remove unbound ligands, and the filter membranes were washed three times with 170 μL cold binding buffer (4° C.). The γ emission was measured using a 1470 Wizard γ-counter from PerkinElmer (Waltham, USA) (80% efficiency).

Row | Structure (SMILES) | Ki [nM]
5 | CCCC[C@@H]1NC(=O)[C@@H]2CCCN2C(=O)[C@H](NC(=O)[C@H](CCCCN)NC(=O)[C@H](Cc2c[nH]cn2)NC(=O)[C@H](CO)NC(=O)[C@H](CC(C)C)NC(=O)[C@H](CCCNC(=N)N)NC(=O)[C@@H]2CCCN2C(=O)[C@H](CCCNC(=N)N)NC(=O)[C@@H]2CCC(=O)N2)CC=CC[C@@H](C(=O)O)NC(=O)[C@@H]2CCCN2C1=O [Compound 9, Pyr-R-P-R-L-S-H-K-[dX-P-Nle-P-X]] ([pGlu]RPRLSHK[dAllylGly]P[Nle]P[AllylGly]-OH; staple 9-13) | 52 ± 15
6 | CCCC[C@@H]1NC(=O)[C@@H]2CCCN2C(=O)[C@@H](NC(=O)[C@H](CCCCN)NC(=O)[C@H](Cc2c[nH]cn2)NC(=O)[C@H](CO)NC(=O)[C@H](CC(C)C)NC(=O)[C@H](CCCNC(=N)N)NC(=O)[C@@H]2CCCN2C(=O)[C@H](CCCNC(=N)N)NC(=O)[C@@H]2CCC(=O)N2)CC=CC[C@H](C(=O)O)NC(=O)[C@@H]2CCCN2C1=O [Compound 10, Pyr-R-P-R-L-S-H-K-[X-P-Nle-P-dX]] ([pGlu]RPRLSHK[AllylGly]P[Nle]P[dAllylGly]-OH; staple 9-13) | 187 ± 20

Same assay, conditions: Ki (APJ affinity)

Row | Structure (SMILES) | Ki [nM]
7 | CCCC[C@H](NC(=O)[C@@H]1CCCN1C(=O)CNC(=O)[C@@H]1CC=CC[C@H](N)C(=O)N[C@@H](CCCNC(=N)N)C(=O)N[C@@H](CC(C)C)C(=O)N[C@@H](CO)C(=O)N1)C(=O)O [Compound 31, NH2-c[X-R-L-S-X]c-G-P-Nle] (H-[AllylGly]RLS[AllylGly]GP[Nle]-OH; staple 1-5) | 0.6

Same assay, conditions: Ki binding

Row | Structure (SMILES) | Ki [nM]
8 | CCCC[C@H](NC(=O)[C@@H]1CCCN1C(=O)CCCCNC(=O)[C@@H]1CC=CC[C@H](N)C(=O)N[C@@H](CCCNC(=N)N)C(=O)N[C@@H](CC(C)C)C(=O)N[C@@H](CO)C(=O)N1)C(=O)O [Compound 32, NH2-c[X-R-L-S-X]c-5Ava-P-Nle] (H-[AllylGly]RLS[AllylGly][Ava]P[Nle]-OH; staple 1-5) | > 10000
9 | CCCC[C@H](NC(=O)[C@@H]1CCCN1C(=O)CNC(=O)[C@H](CCCCN)NC(=O)[C@H](Cc1c[nH]cn1)NC(=O)[C@H](CO)NC(=O)[C@@H]1CC=CC[C@H](NC(=O)[C@@H]2CCC(=O)N2)C(=O)N2CCC[C@H]2C(=O)N[C@@H](CCCNC(=N)N)C(=O)N1)C(=O)N1CCC[C@H]1C(=O)N[C@@H](Cc1ccccc1)C(=O)O [Compound 3, Pyr-c[X-P-R-X]c-S-H-K-G-P-Nle-P-F] ([pGlu][AllylGly]PR[AllylGly]SHKGP[Nle]PF-OH; staple 2-5) | 1250 ± 284
10 | CCCC[C@H](NC(=O)[C@@H]1CCCN1C(=O)CNC(=O)[C@@H]1CC=CC[C@H](NC(=O)[C@@H]2CCC(=O)N2)C(=O)N2CCC[C@H]2C(=O)N[C@@H](C)C(=O)N[C@@H](CC(C)C)C(=O)N[C@@H](CO)C(=O)N[C@@H](Cc2c[nH]cn2)C(=O)N1)C(=O)N1CCC[C@H]1C(=O)N[C@@H](Cc1ccccc1)C(=O)O [Compound 8, Pyr-c[X-P-A-L-S-H-X]c-G-P-Nle-P-F] ([pGlu][AllylGly]PALSH[AllylGly]GP[Nle]PF-OH; staple 2-8) | > 10000
11 | CCCC[C@H](NC(=O)[C@@H]1CCCN1C(=O)CNC(=O)[C@@H]1CC=CC[C@H](N)C(=O)N[C@@H](CCCNC(=N)N)C(=O)N[C@@H](CC(C)C)C(=O)N[C@@H](CO)C(=O)N1)C(=O)O [Compound 31, NH2-c[X-R-L-S-X]c-G-P-Nle] (H-[AllylGly]RLS[AllylGly]GP[Nle]-OH; staple 1-5) | > 10000
